The source made the active and inactive calls. No cut-off for these calls is given here.
Columns and labels:
CT26 [1] = test: Antitumor activity in mouse CT26 cells xenografted in BALB/c mouse assessed as increase in granzyme B-positive CD8+ T cell infiltration into tumor at 30 mg/kg, ip QD by flow cytometry; assay type: functional, organism-based
CT26 [2] = conditions: Mus musculus, BALB/c, dose 30.0 mg/kg, route ip
Description: In vivo inhibition of Wnt signaling pathway in mouse CT26 cells implanted in BALB/c mouse assessed as reduction in Cd44 mRNA expression level in tumor at 30 mg/kg, ip QD by qRT-PCR analysis

HCT-116 = test: Induction of apoptosis in Wnt-dependent human HCT-116 cells assessed as early apoptotic cells at 20 uM incubated for 24 hrs by Annexin V-Alexa Fluor 647/PI staining based flow cytomtery (Rvb=14.3%); assay type: functional
CT26 [3] = test: Induction of apoptosis in Wnt-dependent mouse CT26 cells assessed as late apoptotic cells at 20 uM incubated for 24 hrs by Annexin V-Alexa Fluor 647/PI staining based flow cytomtery (Rvb=9.96%); assay type: functional
[4] = Toxicity in BALB/c mouse xenografted with mouse CT26 cells assessed as pathological changes in liver at 30 mg/kg, ip QD by hematoxylin and eosin staining based microscopic analysis; assay type: organism-based; conditions: in vivo
[5] = Toxicity in BALB/c mouse xenografted with mouse CT26 cells assessed as pathological changes in kidney at 30 mg/kg, ip QD in presence of anti-PD-1 antibody cotreatment at 10 mg/kg,ip BIW by hematoxylin and eosin staining based microscopic analysis; assay type: organism-based; conditions: in vivo
CT26 [6] = test: Synergistic antitumor activity in mouse CT26 cells xenografted in BALB/c mouse assessed as increase in granzyme B-positive CD8+ T cell infiltration into tumor at 30 mg/kg, ip QD in presence of anti-PD-1 antibody cotreatment at 10 mg/kg,ip BIW by flow cytometry; assay type: functional, organism-based
[7] = Microsomal stability in human liver microsomes assessed as half life at […] and measured upto 60 mins by LC-MS/MS analysis; assay type: ADME, Microsome
[8] = Microsomal stability in human liver microsomes assessed as intrinsic clearance at […] and measured upto 60 mins by LC-MS/MS analysis; assay type: ADME, Microsome; conditions: read-out: CLH
[9] = target: T1, beta-catenin-B-cell lymphoma 9 protein complex (Homo sapiens, UniProt P35222); test: Inhibition of beta-catenin/BCL9 protein-protein interaction in Wnt-independent human A549 cells assessed as reduction in Axin2 expression level by qRT-PCR assay; assay type: cell-based
T1 sequence (P35222 whole entry): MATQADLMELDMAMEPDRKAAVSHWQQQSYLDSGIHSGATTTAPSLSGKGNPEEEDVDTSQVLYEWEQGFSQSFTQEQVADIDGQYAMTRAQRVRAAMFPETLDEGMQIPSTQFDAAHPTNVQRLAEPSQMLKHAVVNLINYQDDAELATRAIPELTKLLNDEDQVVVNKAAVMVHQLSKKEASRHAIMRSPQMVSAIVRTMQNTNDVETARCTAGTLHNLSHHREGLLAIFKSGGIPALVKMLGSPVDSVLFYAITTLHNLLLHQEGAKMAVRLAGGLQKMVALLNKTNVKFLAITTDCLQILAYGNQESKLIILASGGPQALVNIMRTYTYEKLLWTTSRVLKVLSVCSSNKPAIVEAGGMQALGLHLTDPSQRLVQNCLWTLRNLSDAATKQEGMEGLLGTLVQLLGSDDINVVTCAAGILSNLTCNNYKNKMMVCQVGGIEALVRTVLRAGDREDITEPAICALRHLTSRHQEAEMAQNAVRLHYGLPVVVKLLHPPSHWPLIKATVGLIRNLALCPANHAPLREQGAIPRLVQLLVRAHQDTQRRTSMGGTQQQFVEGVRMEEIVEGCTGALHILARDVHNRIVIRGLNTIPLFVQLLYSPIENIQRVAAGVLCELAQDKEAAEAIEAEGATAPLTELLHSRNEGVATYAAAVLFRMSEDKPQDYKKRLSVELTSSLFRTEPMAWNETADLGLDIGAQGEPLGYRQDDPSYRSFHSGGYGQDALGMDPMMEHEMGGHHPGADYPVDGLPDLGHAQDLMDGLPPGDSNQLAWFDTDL
T1 sequence (O00512 whole entry): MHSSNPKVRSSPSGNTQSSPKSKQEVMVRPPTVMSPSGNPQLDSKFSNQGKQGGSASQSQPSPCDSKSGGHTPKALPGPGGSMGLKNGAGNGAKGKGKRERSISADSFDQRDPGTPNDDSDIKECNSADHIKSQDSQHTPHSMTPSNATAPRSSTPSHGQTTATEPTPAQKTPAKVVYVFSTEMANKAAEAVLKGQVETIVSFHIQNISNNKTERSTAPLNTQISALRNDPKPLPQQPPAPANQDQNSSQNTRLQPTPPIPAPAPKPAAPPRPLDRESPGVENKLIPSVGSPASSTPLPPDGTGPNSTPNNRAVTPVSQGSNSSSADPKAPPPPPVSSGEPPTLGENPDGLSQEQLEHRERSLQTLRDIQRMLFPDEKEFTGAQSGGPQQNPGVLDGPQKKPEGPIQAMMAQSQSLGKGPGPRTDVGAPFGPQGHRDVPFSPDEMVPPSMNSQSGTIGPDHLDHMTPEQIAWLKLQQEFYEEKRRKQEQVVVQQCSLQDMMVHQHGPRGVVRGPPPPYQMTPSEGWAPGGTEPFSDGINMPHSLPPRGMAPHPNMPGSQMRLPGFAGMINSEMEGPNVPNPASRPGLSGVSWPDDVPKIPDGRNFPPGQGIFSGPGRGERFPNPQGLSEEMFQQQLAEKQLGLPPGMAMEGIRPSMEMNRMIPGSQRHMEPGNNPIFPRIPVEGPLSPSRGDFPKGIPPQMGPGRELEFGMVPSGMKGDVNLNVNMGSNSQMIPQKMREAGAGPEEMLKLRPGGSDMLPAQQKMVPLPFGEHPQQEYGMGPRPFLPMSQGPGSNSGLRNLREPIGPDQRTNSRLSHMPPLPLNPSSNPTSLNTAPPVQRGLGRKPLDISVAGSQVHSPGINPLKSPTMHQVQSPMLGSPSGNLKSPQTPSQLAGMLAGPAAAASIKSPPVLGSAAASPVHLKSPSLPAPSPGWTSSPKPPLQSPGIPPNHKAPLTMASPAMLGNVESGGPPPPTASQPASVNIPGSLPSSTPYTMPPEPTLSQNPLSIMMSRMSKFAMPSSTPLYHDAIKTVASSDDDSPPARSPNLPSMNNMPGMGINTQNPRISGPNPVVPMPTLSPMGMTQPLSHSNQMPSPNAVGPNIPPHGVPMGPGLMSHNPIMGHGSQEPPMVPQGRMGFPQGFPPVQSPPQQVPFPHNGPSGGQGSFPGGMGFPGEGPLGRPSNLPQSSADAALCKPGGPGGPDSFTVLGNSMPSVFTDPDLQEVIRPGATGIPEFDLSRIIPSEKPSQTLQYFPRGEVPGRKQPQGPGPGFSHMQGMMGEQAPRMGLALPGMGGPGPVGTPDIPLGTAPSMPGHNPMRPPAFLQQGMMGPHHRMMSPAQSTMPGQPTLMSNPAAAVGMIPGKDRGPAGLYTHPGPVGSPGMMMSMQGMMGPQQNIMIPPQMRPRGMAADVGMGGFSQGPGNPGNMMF

CC(C)c1ccc(-c2cccc(S(=O)(=O)N3CCCC(c4cccc(OC(C)(C)C(=O)NS(=O)(=O)c5ccc(C(F)(F)F)cc5)c4)C3)c2)cc1 (stereo not given)
Activity (CT26 [1]): Active
inhibition (CT26 [2]): Active
Activity (HCT-116): 26.4%
Activity (CT26 [3]): 52.6%
Activity [4]: Non-Toxic
Activity [5]: Non-Toxic
Activity (CT26 [6]): Active
half-life [7]: 32.1 min
microsomal CLint [8]: 43.2 µL/min/mg

O=C1[C@H](Cc2ccc(O)cc2)N2C(=O)CCN(C(=O)NCc3ccccc3)[C@H]2CN1Cc1cccc2ccccc12
IC50 [9]: 24.7 µM
